From US5428059A, “Benzopyran derivatives and an anti-allergic agent possessing the same as the active ingredient” (Dainippon Ink & Chemicals, Inc., priority 1991, dated 1995)

Tested on: Hartley-type male guinea pigs
Assay: Guinea Pig Homogeneous Skin Passive Anaphylaxis Assay (PCA reaction)
Assay type: in vivo, guinea pig (Hartley-type)
Conditions: 10 mg/kg oral, 48 h after sensitization
Summary of the method: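 Inhibition % is derived from Evans Blue leakage area (mm^2, product of spot diameters) read 30 min after i.v. OVA/dye challenge. Beforehand, male Hartley guinea pigs (250~300 g) were passively sensitized intradermally with 120-fold-diluted anti-OVA serum and, after 48 h, received test compound 10 mg/kg p.o.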

Q: “3-(methoxy)-4-(decyloxy)-8-hydroxy-2H-1-benzopyran-2-one [Compound 99]” was tested. Which “Allergic reaction inhibitory index (%)” value did it give?
A: Its value is 33%.

Same assay, conditions: Cavia porcellus, 10 mg/kg oral, 48 h after sensitization, read-out: Allergic reaction inhibitory index (%)

Q: With `CCCCCCCCCCOc1cccc2c(OC(C)=O)c(OC/C=C(\C)CCC=C(C)C)c(=O)oc12` [Compound 153, 3-(geranyloxy)-4-(acetoxy)-8-(decyloxy)-2H-1-benzopyran-2-one] as the compound, how does the inhibition in vivo at 10 mg/kg read?
A: Its inhibition in vivo at 10 mg/kg is 30%.

Q: With `COc1c(O)c2ccc(O)cc2oc1=O` [Compound 14, 3-(methoxy)-4,7-(dihydroxy)-2H-1-benzopyran-2-one] as the compound, how does the inhibition in vivo at 10 mg/kg read?
A: The inhibition in vivo at 10 mg/kg was 47%.

Q: Which inhibition in vivo at 10 mg/kg does the source give for `CC(C)=CCC/C(C)=C/COc1c(O)c(=O)oc2c(OC/C=C(\C)CCC=C(C)C)cccc12` [Compound 168, 3-hydroxy-4,8-(digeranyloxy)-2H-1-benzopyran-2-one] here?
A: The inhibition in vivo at 10 mg/kg was 34%.

Q: `COc1cccc2oc(=O)c(OC(C)C)c(O)c12` [Compound 198, 3-(isopropoxy)-4-hydroxy-5-(methoxy)-2H-1-benzopyran-2-one] was tested. Which inhibition in vivo at 10 mg/kg did it give?
A: The inhibition in vivo at 10 mg/kg was 40%.

Q: `COc1c(O)c2ccc(OC/C=C(\C)CCC=C(C)C)cc2oc1=O` [Compound 78, 3-(methoxy)-4-hydroxy-7-(geranyloxy)-2H-1-benzopyran-2-one] was tested. Which inhibition in vivo at 10 mg/kg did it give?
A: Its inhibition in vivo at 10 mg/kg is 37%.

Q: With `CC(=O)Oc1c(OC/C=C(\C)CCC=C(C)C)c(=O)oc2c(OC/C=C(\C)CCC=C(C)C)cccc12` [Compound 169, 3,8-(digeranyloxy)-4-(acetoxy)-2H-1-benzopyran-2-one] as the compound, how does the inhibition in vivo at 10 mg/kg read?
A: The inhibition in vivo at 10 mg/kg was 30%.

Q: How did the inhibition in vivo at 10 mg/kg turn out when `CCCCCCCCCCOc1c(O)c(=O)oc2cc(O)ccc12` [Compound 9, 4-(decyloxy)-3,7-(dihydroxy)-2H-1-benzopyran-2-one] was run?
A: Its inhibition in vivo at 10 mg/kg is 39%.

Q: For `CC(C)=CCC/C(C)=C/COc1c(O)c(=O)oc2cc(OC(C)C)ccc12` [Compound 54, 3-hydroxy-4-(geranyloxy)-7-(isopropoxy)-2H-1-benzopyran-2-one], which inhibition in vivo at 10 mg/kg is on record?
A: Its inhibition in vivo at 10 mg/kg is 32%.

Q: With `CC(C)=CCC/C(C)=C/COc1c(O)c(=O)oc2cc(O)ccc12` [Compound 20, 3,7-(dihydroxy)-4-(geranyloxy)-2H-1-benzopyran-2-one] as the compound, how does the inhibition in vivo at 10 mg/kg read?
A: The inhibition in vivo at 10 mg/kg was 30%.

Q: For `CC(=O)Oc1c(O)c(=O)oc2cccc(OC/C=C(\C)CCC=C(C)C)c12` [Compound 246, 3-hydroxy-4-(acetoxy)-5-(geranyloxy)-2H-1-benzopyran-2-one], which inhibition in vivo at 10 mg/kg is on record?
A: The inhibition in vivo at 10 mg/kg was 30%.

Q: With `O=C(Oc1c(O)c2cccc(O)c2oc1=O)c1ccccc1` [Compound 92, 3-(benzoyloxy)-4,8-dihydroxy-2H-1-benzopyran-2-one] as the compound, how does the inhibition in vivo at 10 mg/kg read?
A: Its inhibition in vivo at 10 mg/kg is 33%.

Q: For `CCCCCCCCCCOc1c(OC(=O)c2ccccc2)c2c(OC(C)C)cccc2oc1=O` [Compound 218, 3-(decyloxy)-4-(benzoyloxy)-5-(isopropoxy)-2H-1-benzopyran-2-one], which inhibition in vivo at 10 mg/kg is on record?
A: The inhibition in vivo at 10 mg/kg was 31%.

Q: Which inhibition in vivo at 10 mg/kg does the source give for `COc1ccc2c(OC(C)=O)c(OC(=O)c3ccccc3)c(=O)oc2c1` [Compound 35, 3-(benzoyloxy)-4-(acetoxy)-7-(methoxy)-2H-1-benzopyran-2-one] here?
A: Its inhibition in vivo at 10 mg/kg is 30%.

Q: For `CCCCCCCCCCOc1cccc2oc(=O)c(O)c(OC/C=C(\C)CCC=C(C)C)c12` [Compound 238, 3-hydroxy-4-(geranyloxy)-5-(decyloxy)-2H-1-benzopyran-2-one], which inhibition in vivo at 10 mg/kg is on record?
A: Its inhibition in vivo at 10 mg/kg is 33%.

Q: With `CCCCCCCCCCOc1cccc2oc(=O)c(O)c(O)c12` [Compound 230, 3,4-(dihydroxy)-5-(decyloxy)-2H-1-benzopyran-2-one] as the compound, how does the inhibition in vivo at 10 mg/kg read?
A: The inhibition in vivo at 10 mg/kg was 43%.

Q: With `CCCCCCCCCCOc1ccc2c(OC)c(OC(=O)c3ccccc3)c(=O)oc2c1` [Compound 65, 3-(benzoyloxy)-4-(methoxy)-7-(decyloxy)-2H-1-benzopyran-2-one] as the compound, how does the inhibition in vivo at 10 mg/kg read?
A: The inhibition in vivo at 10 mg/kg was 32%.

Q: How did the inhibition in vivo at 10 mg/kg turn out when `CCCCCCCCCCOc1ccc2c(OC(C)=O)c(OC/C=C(\C)CCC=C(C)C)c(=O)oc2c1` [Compound 69, 3-(geranyloxy)-4-(acetoxy)-7-(decyloxy)-2H-1-benzopyran-2-one] was run?
A: Its inhibition in vivo at 10 mg/kg is 33%.

Q: Which inhibition in vivo at 10 mg/kg does the source give for `CC(=O)Oc1c(OC(=O)c2ccccc2)c(=O)oc2cccc(O)c12` [Compound 180, 3-(benzoyloxy)-4-(acetoxy)-5-hydroxy-2H-1-benzopyran-2-one] here?
A: Its inhibition in vivo at 10 mg/kg is 30%.

Q: How did the inhibition in vivo at 10 mg/kg turn out when `CC(C)=CCC/C(C)=C/COc1c(OC/C=C(\C)CCC=C(C)C)c2ccc(O)cc2oc1=O` [Compound 26, 3,4-(digeranyloxy)-7-hydroxy-2H-1-benzopyran-2-one] was run?
A: The inhibition in vivo at 10 mg/kg was 30%.

Q: With `COc1ccc2c(OC(C)C)c(OC/C=C(\C)CCC=C(C)C)c(=O)oc2c1` [Compound 41, 3-(geranyloxy)-4-(isopropoxy)-7-(methoxy)-2H-1-benzopyran-2-one] as the compound, how does the inhibition in vivo at 10 mg/kg read?
A: The inhibition in vivo at 10 mg/kg was 30%.

Q: `CC(C)=CCC/C(C)=C/COc1c(OC(C)C)c(=O)oc2cc(O)ccc12` [Compound 25, 3-(isopropoxy)-4-(geranyloxy)-7-hydroxy-2H-1-benzopyran-2-one] was tested. Which inhibition in vivo at 10 mg/kg did it give?
A: The inhibition in vivo at 10 mg/kg was 32%.

Q: `COc1ccc2c(OC)c(O)c(=O)oc2c1` [Compound 33, 3-hydroxy-4,7-(dimethoxy)-2H-1-benzopyran-2-one] was tested. Which inhibition in vivo at 10 mg/kg did it give?
A: Its inhibition in vivo at 10 mg/kg is 33%.

Q: `CC(C)=CCC/C(C)=C/COc1ccc2c(OC/C=C(\C)CCC=C(C)C)c(O)c(=O)oc2c1` [Compound 84, 3-hydroxy-4,7-(digeranyloxy)-2H-1-benzopyran-2-one] was tested. Which inhibition in vivo at 10 mg/kg did it give?
A: Its inhibition in vivo at 10 mg/kg is 30%.

Q: How did the inhibition in vivo at 10 mg/kg turn out when `CCCCCCCCCCOc1cccc2c(OC/C=C(\C)CCC=C(C)C)c(O)c(=O)oc12` [Compound 152, 3-hydroxy-4-(geranyloxy)-8-(decyloxy)-2H-1-benzopyran-2-one] was run?
A: Its inhibition in vivo at 10 mg/kg is 31%.

Q: How did the inhibition in vivo at 10 mg/kg turn out when `CCCCCCCCCCOc1ccc2c(O)c(O)c(=O)oc2c1` [Compound 59, 3,4-(dihydroxy)-7-(decyloxy)-2H-1-benzopyran-2-one] was run?
A: The inhibition in vivo at 10 mg/kg was 47%.

Q: How did the inhibition in vivo at 10 mg/kg turn out when `CC(C)=CCC/C(C)=C/COc1cccc2oc(=O)c(OC(=O)c3ccccc3)c(OC(C)C)c12` [Compound 251, 3-(benzoyloxy)-4-(isopropoxy)-5-(geranyloxy)-2H-1-benzopyran-2-one] was run?
A: Its inhibition in vivo at 10 mg/kg is 30%.

Q: How did the inhibition in vivo at 10 mg/kg turn out when `CCCCCCCCCCOc1c(OC)c(=O)oc2cc(OC(C)C)ccc12` [Compound 50, 3-(methoxy)-4-(decyloxy)-7-(isopropoxy)-2H-1-benzopyran-2-one] was run?
A: Its inhibition in vivo at 10 mg/kg is 33%.

Q: With `COc1ccc2c(O)c(OC(=O)c3ccccc3)c(=O)oc2c1` [Compound 27, 3-(benzoyloxy)-4-hydroxy-7-(methoxy)-2H-1-benzopyran-2-one] as the compound, how does the inhibition in vivo at 10 mg/kg read?
A: Its inhibition in vivo at 10 mg/kg is 40%.

Q: For `CCCCCCCCCCOc1c(OC(=O)c2ccccc2)c2c(OC)cccc2oc1=O` [Compound 202, 3-(decyloxy)-4-(benzoyloxy)-5-(methoxy)-2H-1-benzopyran-2-one], which inhibition in vivo at 10 mg/kg is on record?
A: The inhibition in vivo at 10 mg/kg was 30%.

Q: With `CCCCOc1cccc2oc(=O)c(O)c(O)c12` [Compound 227, 3,4-(dihydroxy)-5-(butoxy)-2H-1-benzopyran-2-one] as the compound, how does the inhibition in vivo at 10 mg/kg read?
A: The inhibition in vivo at 10 mg/kg was 50%.

Q: `CCCCCCCCCCOc1cccc2c(OC/C=C(\C)CCC=C(C)C)c(OC/C=C(\C)CCC=C(C)C)c(=O)oc12` [Compound 157, 3,4-(digeranyloxy)-8-(decyloxy)-2H-1-benzopyran-2-one] was tested. Which inhibition in vivo at 10 mg/kg did it give?
A: Its inhibition in vivo at 10 mg/kg is 30%.

Q: `CCCCCCCCCCOc1c(OC)c(=O)oc2cccc(OC(C)C)c12` [Compound 216, 3-(methoxy)-4-(decyloxy)-5-(isopropoxy)-2H-1-benzopyran-2-one] was tested. Which inhibition in vivo at 10 mg/kg did it give?
A: Its inhibition in vivo at 10 mg/kg is 34%.

Q: `CCCCCCCCCCOc1c(OC)c(=O)oc2cc(OC)ccc12` [Compound 36, 3,7-(dimethoxy)-4-(decyloxy)-2H-1-benzopyran-2-one] was tested. Which inhibition in vivo at 10 mg/kg did it give?
A: Its inhibition in vivo at 10 mg/kg is 30%.

Q: With `CCCCCCCCCCOc1c(OC)c(=O)oc2c(OC(C)C)cccc12` [Compound 135, 3-(methoxy)-4-(decyloxy)-8-(isopropoxy)-2H-1-benzoyran-2-one] as the compound, how does the inhibition in vivo at 10 mg/kg read?
A: Its inhibition in vivo at 10 mg/kg is 30%.

Q: `CC(C)=CCC/C(C)=C/COc1c(O)c(=O)oc2cccc(O)c12` [Compound 188, 3,5-(dihydroxy)-4-(geranyloxy)-2H-1-benzopyran-2-one] was tested. Which inhibition in vivo at 10 mg/kg did it give?
A: Its inhibition in vivo at 10 mg/kg is 32%.

Q: Which inhibition in vivo at 10 mg/kg does the source give for `CC(C)=CCC/C(C)=C/COc1c(OC/C=C(\C)CCC=C(C)C)c2c(OC(C)C)cccc2oc1=O` [Compound 223, 3,4-(digeranyloxy)-5-(isopropoxy)-2H-1-benzopyran-2-one] here?
A: The inhibition in vivo at 10 mg/kg was 33%.

Q: How did the inhibition in vivo at 10 mg/kg turn out when `CC(C)=CCC/C(C)=C/COc1c(OC(=O)c2ccccc2)c(=O)oc2cccc(O)c12` [Compound 190, 3-(benzoyloxy)-4-(geranyloxy)-5-hydroxy-2H-1-benzopyran-2-one] was run?
A: The inhibition in vivo at 10 mg/kg was 31%.

Q: Which inhibition in vivo at 10 mg/kg does the source give for `CCCCCCCCCCOc1ccc2c(O)c(OC/C=C(\C)CCC=C(C)C)c(=O)oc2c1` [Compound 67, 3-(geranyloxy)-4-hydroxy-7-(decyloxy)-2H-1-benzopyran-2-one] here?
A: The inhibition in vivo at 10 mg/kg was 39%.

Q: How did the inhibition in vivo at 10 mg/kg turn out when `CC(C)=CCC/C(C)=C/COc1c(OC(C)C)c(=O)oc2c(OC/C=C(\C)CCC=C(C)C)cccc12` [Compound 172, 3-(isopropoxy)-4,8-(digeranyloxy)-2H-1-benzopyran-2-one] was run?
A: The inhibition in vivo at 10 mg/kg was 30%.

Q: How did the inhibition in vivo at 10 mg/kg turn out when `CCCCCCCCCCOc1cccc2c(OC/C=C(\C)CCC=C(C)C)c(OC(C)C)c(=O)oc12` [Compound 156, 3-(isopropoxy)-4-(geranyloxy)-8-(decyloxy)-2H-1-benzopyran-2-one] was run?
A: Its inhibition in vivo at 10 mg/kg is 32%.

Q: With `CCCCOc1c(OC(=O)c2ccccc2)c(=O)oc2cccc(O)c12` [Compound 224, 3-(benzoyloxy)-4-(butoxy)-5-hydroxy-2H-1-benzopyran-2-one] as the compound, how does the inhibition in vivo at 10 mg/kg read?
A: The inhibition in vivo at 10 mg/kg was 30%.

Q: `CC(=O)Oc1c(OC/C=C(\C)CCC=C(C)C)c(=O)oc2c(OC(C)=O)cccc12` [Compound 105, 3-(geranyloxy)-4,8-(diacetoxy)-2H-1-benzopyran-2-one] was tested. Which inhibition in vivo at 10 mg/kg did it give?
A: The inhibition in vivo at 10 mg/kg was 30%.

Q: With `CCCCCCCCCCOc1cccc2c(OC(=O)c3ccccc3)c(OC(C)=O)c(=O)oc12` [Compound 146, 3-(acetoxy)-4-(benzoyloxy)-8-(decyloxy)-2H-1-benzopyran-2-one] as the compound, how does the inhibition in vivo at 10 mg/kg read?
A: Its inhibition in vivo at 10 mg/kg is 30%.

Q: With `CC(=O)Oc1c(O)c(=O)oc2c(O)cccc12` [Compound 94, 3,8-(dihydroxy)-4-(acetoxy)-2H-1-benzopyran-2-one] as the compound, how does the inhibition in vivo at 10 mg/kg read?
A: Its inhibition in vivo at 10 mg/kg is 36%.

Q: `CCCCCCCCCCOc1c(O)c(=O)oc2cccc(O)c12` [Compound 183, 3,5-(dihydroxy)-4-(decyloxy)-2H-1-benzopyran-2-one] was tested. Which inhibition in vivo at 10 mg/kg did it give?
A: The inhibition in vivo at 10 mg/kg was 30%.
